What was measured:
IFN-γ producing cells = experiment: ELISPOT of IFN-γ (Th1) producing CD4+ T cells from lymph nodes; format: in vivo, mice; details: combination pVAC1.OVA + 1400W; FIG. 3
Description: (§1) Twenty four hours later, minipumps containing 1400W (delivering 10 mg/kg per hour), or sterile water (controls), were implanted subcutaneously into mice under anaesthesia. Mice were then immediately immunised by PMID with two cartridges of either pVAC1.0VA or empty vector (1 μg plasmid DNA/mouse).
(§2) Five days later, mice were killed by cervical dislocation and inguinal and periaortic lymph nodes were collected and prepared as for splenocytes (described above), except that the red blood cell lysis step was omitted. To measure the in vivo clonal expansion of CD4+ T cells induced by immunisation, the proportion of ovalbumin-specific T cells was assessed ex vivo in the lymph node cell preparations. Briefly, an aliquot of lymph node cells from each individual mouse was processed for flow cytometry analysis (Coulter XL) using KJ1.26 (0.2 μg, Caltag) and anti-CD4 (0.5 μg, Sigma).
(§3) Th CD4+ subsets were assessed by ELISPOT analyses of CD4+ T cells producing IFN-γ (Th1) and IL-4 (Th2). Briefly, lymph node cell suspension was aliquoted into ELISPOT plates previously coated with capture IFN-γ or IL-4 antibody and stimulated with ovalbumin cognate peptide.

CD8+ T cells = experiment: CD8+ T cell-restricted IFN-γ / IL-2 ELISPOT assay of splenocytes after prime-boost PMID; format: in vivo, C57B1/6 mice
Description: Controls contained pVAC1 (0.5 μg plasmid DNA/cartridge) only.
Spleens were collected 12 days later for T cell assays.
The cytotoxic T cell response was assessed by CD8+ T cell-restricted IFN-γ ELISPOT assay of splenocytes. Mice were killed by cervical dislocation and spleens were collected into ice-cold PBS. […] After two washes in PBS to remove particulate matter the single cell suspension was aliquoted into ELISPOT plates previously coated with capture IFN-γ or IL-2 antibody and stimulated with CD8-restricted cognate peptide. After overnight culture, IFN-γ producing cells were visualised by application of anti-murine IFN-γ-biotin labelled antibody (Pharmingen) followed by streptavidin-conjugated alkaline phosphatase and quantitated using image analysis.

[1] = test system: ovalbumin-specific CD4+ T cells; experiment: In vivo clonal expansion of ovalbumin-specific CD4+ T cells after PMID immunisation (adoptive transfer model, flow cytometry KJ1+ CD4+); design: species or system mice
Description: as §1, §2

IL-4 producing cells = experiment: ELISPOT of IL-4 (Th2) producing CD4+ T cells from lymph nodes; format: in vivo, mice; details: combination of 1400W with pVAC1.OVA vs pVAC1.OVA + vehicle; FIG. 2
Description: as §1, §2, §3

iNOS = iNOS (Homo sapiens, UniProt P35228); details: category per Alderton et al., Biochem J. (2001) 357, 593-615; cited from earlier work

SMILES | increase in number of IFN-γ producing cells (IFN-γ producing cells) | number of IFN-γ- or IL-2-producing CD8+ T cells in the spleens (CD8+ T cells; control plasmid (pVAC1) + 1400W vs vehicle) | number of IFN-γ- or IL-2-producing CD8+ T cells in the spleens (CD8+ T cells; pVAC1.OVAcyt + 1400W relative to pVAC1.OVAcyt + vehicle, 12 days after boost, FIG. 4) | clonal expansion of CD4+ T cells ([1]; empty vector + 1400W vs empty vector + vehicle) | clonal expansion of CD4+ T cells ([1]; pVAC1.OVA + 1400W (minipump, 10 mg/kg per hour) vs pVAC1.OVA + vehicle, lymph nodes, five days after PMID, Figure one) | number of IL-4 producing cells (IL-4 producing cells) | selectivity category of iNOS inhibitor (iNOS)
CC(=N)NCc1cccc(CN)c1 [1400W, N-[3-(aminomethyl)benzyl] acetamidine] | 2-4 times | No differences | twice | No difference | substantial increase | no effect to a modest almost 2 fold increase | –
CC(=N)NCCSCC[C@H](N)C(=O)O [GW274150, S-[2-(1-iminoethylamino)ethyl]-L-homocysteine] | – | – | – | – | – | – | highly selective (compounds of over 50-fold selectivity are regarded as highly selective)
CC(=N)NCCCC[C@H](N)C(=O)O [L-NIL, reference compound] | – | – | – | – | – | – | partially selective (Inhibitors which have a 10-50-fold selectivity are regarded as partially selective inhibitors)

From patent publication US20050054726A1, “Vaccine” (priority 2001, published 2005)
